The text below walks through data of patent US6987114B1, “Antiviral pyrimidinedione derivatives and process for the preparation thereof” (Samjin Pharmaceutical Co., Ltd, priority 1999, dated 2006).

One data set deals with mock-infected MT-4 cells. Nature of the data set: Cytotoxicity based on viability of mock-infected host cells (MTT method). The conditions noted are these: mock-infected MT-4 cells, MTT method, 4 or 5 days at 37° C. The data set is classed as cell-based. In a few lines: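 Mock-infected MT-4 cells at 2.5×10^5 cells/ml were exposed to various concentrations of test compound, run in parallel with HIV-infected (1000 CCID50) cultures. After 4 or 5 days at 37° C., host-cell viability was read by MTT.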

The subject of the next data set is HIV. Nature of the data set: microbe, parasite or virus in culture. It counts as cell-based. Put shortly:
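MT-4 cells (2.5×10^5 cells/ml) infected with 1000 CCID50 HIV, added at once to compound dilutions, incubated 4 or 5 days at 37° C. Protection from virus-induced cytopathic effect read by MTT; cytotoxicity from MTT viability of mock-infected cells in parallel.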

Setting [1] is: Human immunodeficiency virus 1, MT4, HIV-infected MT-4 cells, MTT method, 4 or 5 days at 37° C., read-out: ED50 (the source's name).
Where [2] appears, read: Human immunodeficiency virus 1, MT4, read-out: ED50.

Converted amounts (≈) assume the structure as drawn. Read-outs that look alike come from different tables or passages of the source.

In general, melting point refers to the temperature, or range, at which the solid turns liquid. `Cc1cc(C)cc(C(=O)c2c(C(C)C)c(=O)[nH]c(=O)n2Cc2cccc(Cl)n2)c1` [Example 126, 1-(2-Chloropyridin-6-ylmethyl)-5-isopropyl-6-(3,5-dimethylbenzoyl)-2,4-pyrimidinedione]: the melting point was in the range of 206 to 208 °C. Moreover, in the data set with mock-infected MT-4 cells, the CD50 turned out to be 9.85 µg/mL. The EC50 in the data set on HIV (setting [1]) stood at 0.011 µg/mL (≈ 0.0267 µM).
The molecule `CCC(=O)Cn1c(Oc2cc(C)cc(C)c2)c(C(C)C)c(=O)[nH]c1=O` [Example 162, 1-(2-Butanon-1-yl)-5-isopropyl-6-(3,5-dimethylphenoxy)-2,4-pyrimidinedione] registered a melting point of 135 to 138 °C. The same molecule returned a CD50 in the data set with mock-infected MT-4 cells of 41.40 µg/mL. In the data set on HIV (setting [2]), the EC50 is 0.0159 µg/mL (≈ 0.0462 µM).
Molecule `COc1cc(Cn2c(Oc3cc(C)cc(C)c3)c(C(C)C)c(=O)[nH]c2=O)cc(OC)c1` [Example 58, 1-(3,5-Dimethoxybenzyl)-5-isopropyl-6-(3,5-dimethylphenoxy)-2,4-pyrimidinedione] came in with a melting point of 162 to 164 °C. In the data set with mock-infected MT-4 cells, this molecule displayed a CD50 of over 100.00 µg/mL. Besides, in the data set with HIV (setting [1]), the EC50 amounted to 0.51 µg/mL (≈ 1.2 µM).
Take `Cc1cc(C)cc(Sc2c(C(C)C)c(=O)[nH]c(=O)n2Cc2ccc3ccccc3n2)c1` [Example 132, 1-(Quinolin-2-ylmethyl)-5-isopropyl-6-(3,5-dimethylphenyl)thio-2,4-pyrimidinedione]: the melting point lay in the range of 181 to 183 °C. In the data set on mock-infected MT-4 cells, this molecule displayed a CD50 of 9.60 µg/mL. Also, the EC50 in the data set on HIV (setting [1]) is over 9.58 µg/mL.
For `CCc1c(C(=O)c2cc(C)cc(C)c2)n(CC2CC2)c(=O)[nH]c1=O` [Example 5, 1-(Cyclopropyl)methyl-5-ethyl-6-(3,5-dimethylbenzoyl)-2,4-pyrimidinedione], the melting point is 234 to 236 °C. The CD50 with mock-infected MT-4 cells was found to be 39.4 µg/mL. The EC50 in the data set with HIV (setting [1]) was found to be 0.0011 µg/mL (≈ 0.00337 µM).
As for `CCc1c(C(=O)c2cc(C)cc(C)c2)n(Cc2cccc(C#N)c2)c(=O)[nH]c1=O` [Example 47, 1-(3-Cyanobenzyl)-5-ethyl-6-(3,5-dimethylbenzoyl)-2,4-pyrimidinedione], the melting point was in the range of 206 to 207 °C. In the data set with mock-infected MT-4 cells, this molecule gave a CD50 of 2.53 µg/mL. In addition, the EC50 with HIV (setting [2]) came to 0.003 µg/mL (≈ 0.00774 µM).
`COC(=O)c1ccoc1Cn1c(Oc2cc(C)cc(C)c2)c(C(C)C)c(=O)[nH]c1=O` [Example 154, 1-(3-Methoxycarbonyl-2-furanylmethyl)-5-isopropyl-6-(3,5-dimethylphenoxy)-2,4-pyrimidinedione] showed a melting point of 157 to 159 °C. The molecule further displayed a CD50 with mock-infected MT-4 cells of 10.11 µg/mL. The EC50 with HIV (setting [1]) was 0.074 µg/mL (≈ 0.179 µM).
For `CCc1c(C(=O)c2cc(C)cc(C)c2)n(Cc2cc(C(F)(F)F)cc(C(F)(F)F)c2)c(=O)[nH]c1=O` [Example 65, 1-[3,5-Bis(Trifluoromethyl)benzyl]-5-ethyl-6-(3,5-dimethyl-benzoyl)-2,4-pyrimidinedione] the same measures were 241 to 243 °C, over 100.00 µg/mL and over 100 µg/mL.
`CCc1c(Oc2cc(C)cc(C)c2)n(Cc2cc(Br)cc(Br)c2)c(=O)[nH]c1=O` [Example 87, 1-(3,5-Dibromobenzyl)-5-ethyl-6-(3,5-dimethylphenoxy)-2,4-pyrimidinedione]: the melting point is 210 to 211 °C. The same molecule came in with a CD50 in the data set on mock-infected MT-4 cells of over 100.00 µg/mL. Besides, in the data set on HIV (setting [2]), the EC50 came to 2.05 µg/mL (≈ 4.03 µM).
`Cc1cc(C)cc(C(=O)c2c(C(C)C)c(=O)[nH]c(=O)n2Cn2nnc3ccccc32)c1` [Example 144, 1-(1H-benzotriazol-1-ylmethyl)-5-isopropyl-6-(3,5-dimethyl-benzoyl)-2,4-pyrimidinedione] registered a melting point of 246 to 247 °C. In the data set on mock-infected MT-4 cells, this molecule displayed a CD50 of 8.89 µg/mL. Also, the EC50 in the data set on HIV (setting [1]) came to 0.03 µg/mL (≈ 0.0719 µM).
Molecule `Cc1cc(C)cc(C(=O)c2c(C(C)C)c(=O)[nH]c(=O)n2CC2CCCCC2)c1` [Example 18, 1-(Cyclohexyl)methyl-5-isopropyl-6-(3,5-dimethylbenzoyl)-2,4-pyrimidinedione] registered a melting point of 160 to 162 °C. This molecule also gave a CD50 in the data set on mock-infected MT-4 cells of 8.00 µg/mL. In addition, the EC50 with HIV (setting [2]) was found to be 0.013 µg/mL (≈ 0.034 µM).
For the molecule `CCc1c(C(=O)c2cc(C)cc(C)c2)n(Cc2ccccc2)c(=O)[nH]c1=O` [Example 23, 1-Benzyl-5-ethyl-6-(3,5-dimethylbenzoyl)-2,4-pyrimidine-dione], the melting point fell in the range of 202 to 204 °C. This molecule also displayed a CD50 in the data set on mock-infected MT-4 cells of 8.00 µg/mL. Besides, the EC50 with HIV (setting [1]) was 0.0016 µg/mL (≈ 0.00441 µM).
`Cc1cc(C)cc(Sc2c(C(C)C)c(=O)[nH]c(=O)n2Cc2cccc(C#N)c2)c1` [Example 44, 1-(3-Cyanobenzyl)-5-isopropyl-6-(3,5-dimethylphenyl)thio-2,4-pyrimidinedione] gave a melting point of 186 to 188 °C. In the data set with mock-infected MT-4 cells, this molecule yielded a CD50 of 8.88 µg/mL. In addition, the EC50 in the data set with HIV (setting [2]) was determined as 0.008 µg/mL (≈ 0.0197 µM).
For `Cc1cc(C)cc(C(=O)c2c(C(C)C)c(=O)[nH]c(=O)n2Cc2cc(Cl)cc(Cl)c2)c1` [Example 84, 1-(3,5-Dichlorobenzyl)-5-isopropyl-6-(3,5-dimethylbenzoyl)-2,4-pyrimidinedione], the melting point fell in the range of 220 to 222 °C. Besides, in the data set on mock-infected MT-4 cells, the CD50 came to 7.88 µg/mL. Also, the EC50 in the data set on HIV (setting [2]) turned out to be 0.024 µg/mL (≈ 0.0539 µM).
Turning to `CCc1c(Sc2cc(C)cc(C)c2)n(Cc2c3ccccc3cc3ccccc23)c(=O)[nH]c1=O` [Example 97, 1-(Anthracen-9-ylmethyl)-5-ethyl-6-(3,5-dimethylphenyl)thio-2,4-pyrimidinedione], the melting point is 219 to 220 °C. Also, the CD50 in the data set with mock-infected MT-4 cells came out at 0.59 µg/mL. Besides, in the data set on HIV (setting [2]), the EC50 was over 0.59 µg/mL.
As to `Cc1cc(C)cc(Oc2c(C(C)C)c(=O)[nH]c(=O)n2Cc2cc(F)cc(F)c2)c1` [Example 76, 1-(3,5-Difluorobenzyl)-5-isopropyl-6-(3,5-dimethylphenoxy)-2,4-pyrimidinedione], the melting point lay within 186 to 189 °C. Besides, the CD50 in the data set on mock-infected MT-4 cells amounted to 12.10 µg/mL. The EC50 in the data set on HIV (setting [1]) stood at 0.022 µg/mL (≈ 0.0549 µM).
`CCc1c(Sc2cc(C)cc(C)c2)n(Cc2cc(Cl)cc(Cl)c2)c(=O)[nH]c1=O` [Example 79, 1-(3,5-Dichlorobenzyl)-5-ethyl-6-(3,5-dimethylphenyl)thio-2,4-pyrimidinedione] had a melting point of 180 to 182 °C. For the same molecule, the CD50 in the data set with mock-infected MT-4 cells was 24.77 µg/mL. For the same molecule, the EC50 in the data set on HIV (setting [2]) amounted to 0.052 µg/mL (≈ 0.119 µM).
Turning to `CCc1c(Sc2cc(C)cc(C)c2)n(Cc2cc(C)cc(C)c2)c(=O)[nH]c1=O` [Example 49, 1-(3,5-Dimethylbenzyl)-5-ethyl-6-(3,5-dimethylphenyl)thio-2,4-pyrimidinedione], the melting point lay in the range of 180 to 182 °C. For the same molecule, in the data set with mock-infected MT-4 cells, the CD50 was found to be 7.48 µg/mL. Further, the EC50 with HIV (setting [2]) came to 0.014 µg/mL (≈ 0.0355 µM).
On to `CCc1c(Oc2cc(C)cc(C)c2)n(Cc2cccc(OC)c2)c(=O)[nH]c1=O` [Example 27, 1-(3-Methoxybenzyl)-5-ethyl-6-(3,5-dimethylphenoxy)-2,4-pyrimidinedione], for which the melting point was 133 to 135 °C. This molecule displayed a CD50 in the data set with mock-infected MT-4 cells of 10.68 µg/mL. Also, the EC50 in the data set on HIV (setting [1]) worked out at 0.014 µg/mL (≈ 0.0368 µM).
`Cc1cc(C)cc(Oc2c(C(C)C)c(=O)[nH]c(=O)n2Cc2c3ccccc3cc3ccccc23)c1` [Example 100, 1-(Anthracen-9-ylmethyl)-5-isopropyl-6-(3,5-dimethyl-phenoxy)-2,4-pyrimidinedione] returned a melting point of 224 to 226 °C. The molecule further gave a CD50 in the data set with mock-infected MT-4 cells of 2.02 µg/mL. The EC50 with HIV (setting [2]) is over 2.02 µg/mL.
`CCc1c(Oc2cc(C)cc(C)c2)n(Cc2ccc3ccccc3n2)c(=O)[nH]c1=O` [Example 133, 1-(Quinolin-2-ylmethyl)-5-ethyl-6-(3,5-dimethyl-phenoxy)-2,4-pyrimidinedione] displayed a melting point of 220 to 222 °C. Moreover, in the data set on mock-infected MT-4 cells, the CD50 turned out to be 11.70 µg/mL. The EC50 with HIV (setting [1]) turned out to be 0.06 µg/mL (≈ 0.149 µM).
In the same order, the values of `Cc1cc(C)cc(C(=O)c2c(C(C)C)c(=O)[nH]c(=O)n2Cc2ccccc2C#N)c1` [Example 42, 1-(2-Cyanobenzyl)-5-isopropyl-6-(3,5-dimethylbenzoyl)-2,4-pyrimidinedione] are 250 to 253 °C, over 100.00 µg/mL and 0.005 µg/mL (≈ 0.0125 µM).
In the case of `Cc1cc(C)cc(Oc2c(C(C)C)c(=O)[nH]c(=O)n2Cc2cccc(C#N)c2)c1` [Example 46, 1-(3-Cyanobenzyl)-5-isopropyl-6-(3,5-dimethylphenoxy)-2,4-pyrimidinedione], the melting point is 160 to 162 °C. The molecule also had a CD50 in the data set on mock-infected MT-4 cells of 9.20 µg/mL. Besides, the EC50 in the data set with HIV (setting [2]) worked out at 0.023 µg/mL (≈ 0.0591 µM).
Regarding `Cc1cc(C)cc(Oc2c(C(C)C)c(=O)[nH]c(=O)n2Cc2nc3ccccc3o2)c1` [Example 148, 1-(Benzoxazol-2-ylmethyl)-5-isopropyl-6-(3,5-dimethylphenoxy)-2,4-pyrimidinedione], the melting point lay within 200 to 202 °C. The CD50 in the data set on mock-infected MT-4 cells amounted to 9.00 µg/mL. Besides, in the data set with HIV (setting [2]), the EC50 was 0.01 µg/mL (≈ 0.0247 µM).
In turn, `Cc1cc(C)cc(Sc2c(C(C)C)c(=O)[nH]c(=O)n2Cc2ccc3c(c2)C(=O)c2ccccc2C3=O)c1` [Example 104, 1-(Anthraquinon-2-ylmethyl)-5-isopropyl-6-(3,5-dimethyl-phenyl)thio-2,4-pyrimidinedione] showed a melting point of 120 to 122 °C. In the data set on mock-infected MT-4 cells, this molecule had a CD50 of over 100.00 µg/mL. For the same molecule, in the data set on HIV (setting [1]), the EC50 is over 100 µg/mL.
Consider `CCc1c(C(=O)c2cc(C)cc(C)c2)n(Cc2ccccn2)c(=O)[nH]c1=O` [Example 113, 1-(Pyridin-2-ylmethyl)-5-ethyl-6-(3,5-dimethylbenzoyl)-2,4-pyrimidinedione], for which the melting point is 153 to 155 °C. The CD50 in the data set with mock-infected MT-4 cells was determined as 32.80 µg/mL. Further, the EC50 with HIV (setting [1]) was 0.0084 µg/mL (≈ 0.0231 µM).
